# Experimental data published in patent US20240252488A1 (KOREA RESEARCH INSTITUTE OF CHEMICAL TECHNOLOGY, priority 2020, published 2024).
# pKd: −log10 of the molar value.
# How the values were obtained:
# [1] = target: T1, MLKL (Homo sapiens, UniProt Q8NB16); experiment: Measurement of binding affinity with MLKL receptor (competitive binding assay, Kd); parameters: made in house; host or cells: HEK 293 cell line (T7 phage in E. coli BL21-derived host is also described)
# T1 sequence (Q8NB16 1-471): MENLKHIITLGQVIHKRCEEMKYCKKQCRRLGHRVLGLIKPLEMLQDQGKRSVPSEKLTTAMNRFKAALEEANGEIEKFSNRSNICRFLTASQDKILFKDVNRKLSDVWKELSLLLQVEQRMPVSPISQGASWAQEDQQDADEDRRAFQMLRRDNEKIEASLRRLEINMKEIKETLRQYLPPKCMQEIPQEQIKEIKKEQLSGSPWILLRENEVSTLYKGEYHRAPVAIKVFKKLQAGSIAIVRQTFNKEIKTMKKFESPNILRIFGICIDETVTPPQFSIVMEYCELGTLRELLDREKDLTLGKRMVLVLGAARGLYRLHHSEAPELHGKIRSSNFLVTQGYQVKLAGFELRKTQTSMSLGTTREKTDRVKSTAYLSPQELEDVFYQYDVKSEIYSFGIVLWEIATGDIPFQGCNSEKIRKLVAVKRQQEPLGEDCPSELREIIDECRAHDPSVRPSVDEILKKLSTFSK
# In short: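 HEK 293-expressed, DNA-tagged MLKL; ligand beads blocked with biotin and SeaBlock/1% BSA/0.05% Tween 20/1 mM DTT buffer. Cpd from 111× DMSO stock, 0.9% DMSO final. Eluted kinase by qPCR → Kd.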
# [2] = system: FADD−/− Jurkat cells; experiment: Necroptosis inhibition assay, TNF-α-induced necroptosis (CellTiter-Glo 2.0); assay type: cell-based, human; conditions: TNF-α 15 ng/mL; for Necroptosis inhibition assay (Rescue %) 1 μM: compound 1 μM; for Necroptosis inhibition assay (Rescue %) 10 μM: compound 10 μM
# In short: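 FADD−/− Jurkat cells preincubated 30 min at room temperature with compound at 0.1, 1 and 10 μM final, then stimulated with TNF-α (15 ng/mL final) for 20–24 h at 37 °C, 5% CO2. Viability read as ATP luminescence; cytotoxicity and necroptosis inhibition rate calculated from luminescence values.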
# [3] = target: T1, MLKL; experiment: MLKL degradation assay in HepG2 cell line (western blot); assay type: cell-based; parameters: endogenous in cells; host or cells: HepG2 or HaCaT; conditions: cell line not given; for Degradation assay (Degradation %) 1 μM: compound 1 μM; for Degradation assay (Degradation %) 10 μM: compound 10 μM
# In short: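 HepG2 cells were treated 20-24 h at 37 °C with compound at 1 or 10 μM final. RIPA lysates were normalized by BCA, and 10-15 μg protein per lane was resolved by SDS-PAGE. MLKL was detected by western blot with chemiluminescence.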
pKd [1],Degradation assay (Degradation %) 1 μM [3],Degradation assay (Degradation %) 10 μM [3],Compound,Necroptosis inhibition assay (Rescue %) 1 μM [2],Necroptosis inhibition assay (Rescue %) 10 μM [2]
7.02,7.56%,26.63%,"Nc1ncc(-c2ccc(N3CCN(CCOCCOCCNC(=O)C4CCN(c5cccc6c5C(=O)N(C5CCC(=O)NC5=O)C6=O)CC4)CC3)nc2)nc1C(=O)OC(C(=O)Nc1ccc(F)cc1)c1ccccc1 (stereo not drawn) [TDH-257, 2-((4-fluorophenyl)amino)-2-oxo-1-phenylethyl 3-amino-6-(6-(4-(2-(2-(2-(1-(2-(2,6-dioxopiperidin-3-yl)-1,3-dioxoisoindolin-4-yl)piperidine-4-carboxamido)ethoxy)ethoxy)ethyl)piperazin-1-yl)pyridin-3-yl)pyrazine-2-carboxylate]",24.61%,21.71%
7.11,13.9%,10.67%,"Nc1ncc(-c2ccc(N3CCN(CCOCCOCCNC(=O)C4CCN(c5ccc6c(c5)C(=O)N(C5CCC(=O)NC5=O)C6=O)CC4)CC3)nc2)nc1C(=O)OC(C(=O)Nc1ccc(F)cc1)c1ccccc1 (stereo not drawn) [TDH-258, 2-((4-fluorophenyl)amino)-2-oxo-1-phenylethyl 3-amino-6-(6-(4-(2-(2-(2-(1-(2-(2,6-dioxopiperidin-3-yl)-1,3-dioxoisoindolin-5-yl)piperidine-4-carboxamido)ethoxy)ethoxy)ethyl)piperazin-1-yl)pyridin-3-yl)pyrazine-2-carboxylate]",33.73%,24.69%
7.74,38.65%,53.35%,"Nc1ncc(-c2ccc(N3CCN(CCOCCOCCNC(=O)CNc4ccc5c(c4)C(=O)N(C4CCC(=O)NC4=O)C5=O)CC3)nc2)nc1C(=O)OC(C(=O)Nc1ccc(F)cc1)c1ccccc1 (stereo not drawn) [TDH-260, 2-((4-fluorophenyl)amino)-2-oxo-1-phenylethyl 3-amino-6-(6-(4-(2-(2-(2-(2-((2-(2,6-dioxopiperidin-3-yl)-1,3-dioxoisoindolin-5-yl)amino)acetamido)ethoxy)ethoxy)ethyl)piperazin-1-yl)pyridin-3-yl)pyrazine-2-carboxylate]",14.46%,13.52%
7.37,34.54%,42.25%,"Nc1ncc(-c2ccc(N3CCN(CCOCCOCCNC(=O)COc4cccc5c4C(=O)N(C4CCC(=O)NC4=O)C5=O)CC3)nc2)nc1C(=O)OC(C(=O)Nc1ccc(F)cc1)c1ccccc1 (stereo not drawn) [TDH-261, 2-((4-fluorophenyl)amino)-2-oxo-1-phenylethyl 3-amino-6-(6-(4-(2-(2-(2-(2-((2-(2,6-dioxopiperidin-3-yl)-1,3-dioxoisoindolin-4-yl)oxy)acetamido)ethoxy)ethoxy)ethyl)piperazin-1-yl)pyridin-3-yl)pyrazine-2-carboxylate]",15.5%,14.28%
7.19,58.43%,75.8%,"Nc1ncc(-c2ccc(N3CCN(CCOCCOCCNC(=O)COc4ccc5c(c4)C(=O)N(C4CCC(=O)NC4=O)C5=O)CC3)nc2)nc1C(=O)OC(C(=O)Nc1ccc(F)cc1)c1ccccc1 (stereo not drawn) [TDH-262, 2-((4-fluorophenyl)amino)-2-oxo-1-phenylethyl 3-amino-6-(6-(4-(2-(2-(2-(2-((2-(2,6-dioxopiperidin-3-yl)-1,3-dioxoisoindolin-5-yl)oxy)acetamido)ethoxy)ethoxy)ethyl)piperazin-1-yl)pyridin-3-yl)pyrazine-2-carboxylate]",22.59%,4.02%
8.13,76.27%,71.82%,"Nc1ncc(-c2cnn([C@H]3CCN(CCOCCOCCNC(=O)CNc4cccc5c4C(=O)N(C4CCC(=O)NC4=O)C5=O)C3)c2)nc1C(=O)OC(C(=O)Nc1ccc(F)cc1)c1ccccc1 (stereo partly drawn) [TDH-263, 2-((4-fluorophenyl)amino)-2-oxo-1-phenylethyl 3-amino-6-(1-((3S)-1-(2-(2-(2-(2-((2-(2,6-dioxopiperidin-3-yl)-1,3-dioxoisoindolin-4-yl)amino)acetamido)ethoxy)ethoxy)ethyl)pyrrolidin-3-yl)-1H-pyrazol-4-yl)pyrazine-2-carboxylate]",16.13%,57.97%
8.47,65.05%,53.98%,"Nc1ncc(-c2cnn([C@H]3CCN(CCOCCOCCNC(=O)CNc4ccc5c(c4)C(=O)N(C4CCC(=O)NC4=O)C5=O)C3)c2)nc1C(=O)OC(C(=O)Nc1ccc(F)cc1)c1ccccc1 (stereo partly drawn) [TDH-264, 2-((4-fluorophenyl)amino)-2-oxo-1-phenylethyl 3-amino-6-(1-((3S)-1-(2-(2-(2-(2-((2-(2,6-dioxopiperidin-3-yl)-1,3-dioxoisoindolin-5-yl)amino)acetamido)ethoxy)ethoxy)ethyl)pyrrolidin-3-yl)-1H-pyrazol-4-yl)pyrazine-2-carboxylate]",23.38%,40.72%
8.36,11.99%,49.83%,"Nc1ncc(-c2cnn([C@H]3CCN(CCOCCOCCNC(=O)COc4cccc5c4C(=O)N(C4CCC(=O)NC4=O)C5=O)C3)c2)nc1C(=O)OC(C(=O)Nc1ccc(F)cc1)c1ccccc1 (stereo partly drawn) [TDH-265, 2-((4-fluorophenyl)amino)-2-oxo-1-phenylethyl 3-amino-6-(1-((3S)-1-(2-(2-(2-(2-((2-(2,6-dioxopiperidin-3-yl)-1,3-dioxoisoindolin-4-yl)oxy)acetamido)ethoxy)ethoxy)ethyl)pyrrolidin-3-yl)-1H-pyrazol-4-yl)pyrazine-2-carboxylate]",19.18%,41.68%
8.22,18.14%,40.08%,"Nc1ncc(-c2cnn([C@H]3CCN(CCOCCOCCNC(=O)COc4ccc5c(c4)C(=O)N(C4CCC(=O)NC4=O)C5=O)C3)c2)nc1C(=O)OC(C(=O)Nc1ccc(F)cc1)c1ccccc1 (stereo partly drawn) [TDH-266, 2-((4-fluorophenyl)amino)-2-oxo-1-phenylethyl 3-amino-6-(1-((3S)-1-(2-(2-(2-(2-((2-(2,6-dioxopiperidin-3-yl)-1,3-dioxoisoindolin-5-yl)oxy)acetamido)ethoxy)ethoxy)ethyl)pyrrolidin-3-yl)-1H-pyrazol-4-yl)pyrazine-2-carboxylate]",35.24%,68.2%
8.24,–,37.75%,"Nc1ncc(-c2cnn([C@@H]3CCN(CCOCCOCCNC(=O)CNc4cccc5c4C(=O)N(C4CCC(=O)NC4=O)C5=O)C3)c2)nc1C(=O)OC(C(=O)Nc1ccc(F)cc1)c1ccccc1 (stereo partly drawn) [TDH-267, 2-((4-fluorophenyl)amino)-2-oxo-1-phenylethyl 3-amino-6-(1-((3R)-1-(2-(2-(2-(2-((2-(2,6-dioxopiperidin-3-yl)-1,3-dioxoisoindolin-4-yl)amino)acetamido)ethoxy)ethoxy)ethyl)pyrrolidin-3-yl)-1H-pyrazol-4-yl)pyrazine-2-carboxylate]",21.58%,60.07%
8.16,7.05%,35.64%,"Nc1ncc(-c2cnn([C@@H]3CCN(CCOCCOCCNC(=O)CNc4ccc5c(c4)C(=O)N(C4CCC(=O)NC4=O)C5=O)C3)c2)nc1C(=O)OC(C(=O)Nc1ccc(F)cc1)c1ccccc1 (stereo partly drawn) [TDH-268, 2-((4-fluorophenyl)amino)-2-oxo-1-phenylethyl 3-amino-6-(1-((3R)-1-(2-(2-(2-(2-((2-(2,6-dioxopiperidin-3-yl)-1,3-dioxoisoindolin-5-yl)amino)acetamido)ethoxy)ethoxy)ethyl)pyrrolidin-3-yl)-1H-pyrazol-4-yl)pyrazine-2-carboxylate]",21.45%,51.22%
